This is an account of results in US20250084039A1, “4-SUBSTITUTED AMINOISOQUINOLINE DERIVATIVES” (Purdue Research Foundation, priority 2016, published 2025).

The test system of assay [1] is HeLa. The experiment in a line: Proliferation inhibition at single concentration (CellTiter-Blue). The class given is cell-based. The conditions noted are these: 1 μM compound.
Assay [2] deals with MCF-7. The description is as above. The class given is cell-based. Conditions: 1 μM compound.
Assay [3] deals with MV-4-11. The description is as above. The conditions noted are these: 1 μM compound. The class given is cell-based.
Assay [4] has as its system NCI H1703 (NSCLC). The experiment in a line: Activity against lung cancer cell line. The class given is cell-based. The conditions noted are these: Homo sapiens, NCI-H1703.
Assay [5] addresses ABL1 (T315I) non-phosphorylated (Homo sapiens (Human), UniProt P00519, T315I). Kind of assay: DiscoverX Kd Elect binding.
Assay [6] has as its target SRC (Homo sapiens (Human), UniProt P12931). Kind of assay: Inhibition of kinase enzymatic activity (IC50). The class given is biochemical.
Assay [7] has as its target FLT3 (ITD, F691L) (Homo sapiens, UniProt P36888, F691L/ITD). Kind of assay: DiscoverX Kd Elect binding.
Assay [8] concerns the target CTK/MATK (Homo sapiens (Human), UniProt P42679). Kind of assay: Reaction Biology HotSpot kinase assay. The class given is biochemical. Conditions: 500 nM compound; for inhibition at 0.5 µM: read-out: Percentage kinase inhibition CTK/MATK. The essentials:
(§1)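 Compounds were screened at one concentration, 500 nM, in a radiometric kinase reaction. After a 20-minute preincubation with enzyme and substrate in pH 7.5 HEPES buffer (1% DMSO), the mixture received 100 μM ATP containing [γ-33P]ATP and was left 2 h at room temperature.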

For assay [9], the target named is LYN B (Homo sapiens (Human), UniProt P07948). The experiment in a line: Reaction Biology HotSpot kinase assay. The class given is biochemical. Conditions: 500 nM compound; for inhibition at 0.5 µM: read-out: Percentage kinase inhibition LYN B. The essentials:
as §1

Assay [10] deals with TRKC (Homo sapiens (Human), UniProt Q16288). Kind of assay: Reaction Biology HotSpot kinase assay. The class given is biochemical. The conditions noted are these: 500 nM compound, 100 μM radiolabeled ATP. The essentials: (§2)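 Phosphotransfer from [γ-33P]ATP was quantified after filter binding on P81 paper. Conditions: 20 mM HEPES pH 7.5, 10 mM MgCl2, 0.1 mM Na3VO4, 2 mM DTT, 0.02 mg/mL BSA; ATP 100 μM final; 2 h at room temperature. Compound was dosed at 500 nM.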

In assay [11] the target is FGFR2 (Homo sapiens (Human), UniProt P21802). The experiment in a line: Reaction Biology HotSpot kinase assay. The class given is biochemical. Conditions: 500 nM compound; read-out: Percentage kinase inhibition FGFR2. The essentials:
as §1

The target in assay [12] is RIPK4 (Homo sapiens (Human), UniProt P57078). Kind of assay: Reaction Biology HotSpot kinase assay. The class given is biochemical. Conditions: 500 nM compound; read-out: Percentage kinase inhibition RIPK4. The essentials: as §1
The target of assay [13] is TAOK1 (Homo sapiens (Human), UniProt Q7L7X3). The experiment in a line: Reaction Biology HotSpot kinase assay. The class given is biochemical. Conditions: 500 nM compound; for inhibition at 0.5 µM: read-out: Percentage kinase inhibition TAOK1. The essentials: as §1
Assay [14] has as its target FGFR3 (Homo sapiens (Human), UniProt P22607). The experiment in a line: Reaction Biology HotSpot kinase assay. The class given is biochemical. The conditions noted are these: 500 nM compound; read-out: Percentage kinase inhibition FGFR3. The essentials: as §1
Assay [15] addresses PDGFRb (Homo sapiens (Human), UniProt P09619). The experiment in a line: Reaction Biology HotSpot kinase assay. The class given is biochemical. Conditions: 500 nM compound; read-out: Percentage kinase inhibition PDGFRb. The essentials: as §1
Assay [16] concerns the target CSK (Homo sapiens (Human), UniProt P41240). Kind of assay: Reaction Biology HotSpot kinase assay. Conditions: 500 nM compound; for inhibition at 0.5 µM: read-out: Percentage kinase inhibition CSK. The class given is biochemical. The essentials:
as §1

In assay [17] the target is IKKa/CHUK (Homo sapiens (Human), UniProt O15111). The experiment in a line: Reaction Biology HotSpot kinase assay. The class given is biochemical. The conditions noted are these: 500 nM compound; for inhibition at 0.5 µM: read-out: Percentage kinase inhibition IKKa/CHUK. The essentials: as §1
Assay [18] addresses JAK2 (Homo sapiens (Human), UniProt O60674). The experiment in a line: Reaction Biology HotSpot kinase assay. The class given is biochemical. The conditions noted are these: 500 nM compound; for inhibition at 0.5 µM: read-out: Percentage kinase inhibition JAK2. The essentials: as §1
Assay [19] addresses AKT2 (Homo sapiens (Human), UniProt P31751). The experiment in a line: Reaction Biology HotSpot kinase assay. The class given is biochemical. Conditions: 500 nM compound; for inhibition at 0.5 µM: read-out: Percentage kinase inhibition AKT2. The essentials: as §1
For assay [20], the target named is DNA-PK (Homo sapiens (Human), UniProt P78527). The experiment in a line: Reaction Biology HotSpot kinase assay. The class given is biochemical. The conditions noted are these: 500 nM compound; read-out: Percentage kinase inhibition DNA-PK. The essentials: as §1
Assay [21] concerns the target HCK (Homo sapiens (Human), UniProt P08631). Kind of assay: Reaction Biology HotSpot kinase assay. The class given is biochemical. Conditions: 500 nM compound; for inhibition at 0.5 µM: read-out: Percentage kinase inhibition HCK. The essentials: as §1
The target in assay [22] is FGFR4 (Homo sapiens (Human), UniProt P22455). Kind of assay: Reaction Biology HotSpot kinase assay. The class given is biochemical. Conditions: 500 nM compound; read-out: Percentage kinase inhibition FGFR4. The essentials:
as §1

For assay [23], the target named is CDK2/cyclin A (Homo sapiens (Human), UniProt P24941). The experiment in a line: Reaction Biology HotSpot kinase assay. The class given is biochemical. Conditions: 500 nM compound; for inhibition at 0.5 µM: read-out: Percentage kinase inhibition CDK2/cyclin A. The essentials:
as §2

Assay [24] concerns the target RET (Homo sapiens (Human), UniProt P07949). The experiment in a line: Reaction Biology HotSpot kinase assay. The class given is biochemical. The conditions noted are these: 500 nM compound; for inhibition at 0.5 µM: read-out: Percentage kinase inhibition RET. The essentials:
as §1

Assay [25] has as its target c-Src (Homo sapiens (Human), UniProt P12931). Kind of assay: Reaction Biology HotSpot kinase assay. The class given is biochemical. Conditions: 500 nM compound; for inhibition at 0.5 µM: read-out: Percentage kinase inhibition c-Src. The essentials:
as §1

RET, sequence (P07949 29-1114): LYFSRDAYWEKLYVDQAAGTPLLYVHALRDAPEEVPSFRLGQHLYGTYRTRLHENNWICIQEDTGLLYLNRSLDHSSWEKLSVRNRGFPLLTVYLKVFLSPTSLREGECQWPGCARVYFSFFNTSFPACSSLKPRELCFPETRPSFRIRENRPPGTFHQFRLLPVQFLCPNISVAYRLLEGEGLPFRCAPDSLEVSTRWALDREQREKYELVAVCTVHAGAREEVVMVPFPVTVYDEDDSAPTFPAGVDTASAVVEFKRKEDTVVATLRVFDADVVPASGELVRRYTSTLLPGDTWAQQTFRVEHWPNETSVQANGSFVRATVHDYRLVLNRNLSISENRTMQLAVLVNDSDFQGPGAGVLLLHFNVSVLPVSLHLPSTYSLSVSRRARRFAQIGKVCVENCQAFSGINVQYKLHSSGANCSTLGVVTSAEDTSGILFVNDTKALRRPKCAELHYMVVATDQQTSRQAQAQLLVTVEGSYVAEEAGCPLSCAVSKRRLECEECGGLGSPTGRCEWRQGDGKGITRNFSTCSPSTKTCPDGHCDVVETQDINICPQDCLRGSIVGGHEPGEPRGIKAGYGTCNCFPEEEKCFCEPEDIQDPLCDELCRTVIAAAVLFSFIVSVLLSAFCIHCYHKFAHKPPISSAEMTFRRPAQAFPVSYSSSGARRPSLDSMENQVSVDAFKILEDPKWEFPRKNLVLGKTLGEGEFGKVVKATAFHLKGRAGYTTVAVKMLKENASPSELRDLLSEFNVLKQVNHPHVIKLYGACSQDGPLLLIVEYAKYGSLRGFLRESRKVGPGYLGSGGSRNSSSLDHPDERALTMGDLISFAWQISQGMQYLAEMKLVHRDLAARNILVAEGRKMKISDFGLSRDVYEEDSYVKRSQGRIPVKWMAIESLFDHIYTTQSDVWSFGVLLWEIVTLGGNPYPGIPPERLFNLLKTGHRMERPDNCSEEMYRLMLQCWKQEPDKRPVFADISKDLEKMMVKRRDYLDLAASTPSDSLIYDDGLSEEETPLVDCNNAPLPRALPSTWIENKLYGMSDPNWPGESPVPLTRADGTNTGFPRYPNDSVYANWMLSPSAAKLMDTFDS
TAOK1, sequence (Q7L7X3 whole entry): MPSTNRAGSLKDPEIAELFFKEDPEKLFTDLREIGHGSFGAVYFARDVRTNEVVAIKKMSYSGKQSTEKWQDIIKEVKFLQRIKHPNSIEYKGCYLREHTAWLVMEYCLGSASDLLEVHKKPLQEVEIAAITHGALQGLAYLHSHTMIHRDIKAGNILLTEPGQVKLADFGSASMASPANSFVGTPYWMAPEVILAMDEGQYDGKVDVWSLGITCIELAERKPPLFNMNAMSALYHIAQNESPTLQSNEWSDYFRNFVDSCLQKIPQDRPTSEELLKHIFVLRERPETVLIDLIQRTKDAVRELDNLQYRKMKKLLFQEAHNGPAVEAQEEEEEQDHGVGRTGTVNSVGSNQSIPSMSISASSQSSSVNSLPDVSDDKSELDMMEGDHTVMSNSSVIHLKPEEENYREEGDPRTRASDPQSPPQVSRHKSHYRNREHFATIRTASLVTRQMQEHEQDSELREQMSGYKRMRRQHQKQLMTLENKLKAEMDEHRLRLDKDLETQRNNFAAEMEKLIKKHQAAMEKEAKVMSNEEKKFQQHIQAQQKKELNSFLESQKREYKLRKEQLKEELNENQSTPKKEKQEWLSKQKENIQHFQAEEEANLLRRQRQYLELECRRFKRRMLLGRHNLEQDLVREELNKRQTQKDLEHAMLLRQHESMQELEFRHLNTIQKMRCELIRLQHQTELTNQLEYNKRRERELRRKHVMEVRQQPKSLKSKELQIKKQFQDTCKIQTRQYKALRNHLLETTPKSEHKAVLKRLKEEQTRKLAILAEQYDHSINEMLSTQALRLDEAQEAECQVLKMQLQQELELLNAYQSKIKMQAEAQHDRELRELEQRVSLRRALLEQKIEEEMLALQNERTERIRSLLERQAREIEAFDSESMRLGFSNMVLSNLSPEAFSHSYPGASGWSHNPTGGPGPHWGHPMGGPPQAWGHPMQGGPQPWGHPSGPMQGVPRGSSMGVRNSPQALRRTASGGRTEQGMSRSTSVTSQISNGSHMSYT
TRKC, sequence (Q16288 32-839): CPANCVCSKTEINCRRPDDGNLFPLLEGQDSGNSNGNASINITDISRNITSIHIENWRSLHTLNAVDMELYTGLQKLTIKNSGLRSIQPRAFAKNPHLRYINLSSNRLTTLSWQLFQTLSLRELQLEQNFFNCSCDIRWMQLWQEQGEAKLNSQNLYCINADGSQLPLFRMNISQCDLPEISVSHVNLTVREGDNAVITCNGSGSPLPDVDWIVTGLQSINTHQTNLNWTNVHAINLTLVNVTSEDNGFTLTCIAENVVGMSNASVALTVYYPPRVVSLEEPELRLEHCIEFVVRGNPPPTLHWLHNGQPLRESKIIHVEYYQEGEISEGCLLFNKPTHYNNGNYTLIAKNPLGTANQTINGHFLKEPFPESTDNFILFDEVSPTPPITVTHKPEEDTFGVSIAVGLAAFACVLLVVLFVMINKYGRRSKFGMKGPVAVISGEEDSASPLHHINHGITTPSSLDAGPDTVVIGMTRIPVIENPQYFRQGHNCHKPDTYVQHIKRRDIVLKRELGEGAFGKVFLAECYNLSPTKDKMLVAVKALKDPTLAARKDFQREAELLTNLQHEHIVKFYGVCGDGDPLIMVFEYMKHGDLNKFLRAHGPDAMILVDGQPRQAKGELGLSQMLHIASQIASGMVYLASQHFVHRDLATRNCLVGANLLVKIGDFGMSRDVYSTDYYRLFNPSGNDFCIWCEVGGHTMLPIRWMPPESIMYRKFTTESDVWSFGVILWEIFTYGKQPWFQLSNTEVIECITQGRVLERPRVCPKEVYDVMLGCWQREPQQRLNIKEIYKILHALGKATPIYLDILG
AKT2, sequence (P31751 whole entry): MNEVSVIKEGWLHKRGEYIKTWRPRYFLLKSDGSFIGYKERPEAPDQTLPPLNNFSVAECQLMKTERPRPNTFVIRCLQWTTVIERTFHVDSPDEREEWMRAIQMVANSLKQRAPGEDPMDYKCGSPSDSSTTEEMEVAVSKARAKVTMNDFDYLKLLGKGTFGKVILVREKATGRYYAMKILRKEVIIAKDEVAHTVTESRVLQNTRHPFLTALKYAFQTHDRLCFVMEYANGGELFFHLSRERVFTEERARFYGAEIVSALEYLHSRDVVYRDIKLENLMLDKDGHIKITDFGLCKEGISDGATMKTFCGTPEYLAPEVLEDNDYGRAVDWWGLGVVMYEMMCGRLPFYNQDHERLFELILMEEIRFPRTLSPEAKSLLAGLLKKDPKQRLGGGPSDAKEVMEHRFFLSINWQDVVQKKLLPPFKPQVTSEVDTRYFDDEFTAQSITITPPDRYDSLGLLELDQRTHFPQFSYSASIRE
CTK/MATK, sequence (P42679 whole entry): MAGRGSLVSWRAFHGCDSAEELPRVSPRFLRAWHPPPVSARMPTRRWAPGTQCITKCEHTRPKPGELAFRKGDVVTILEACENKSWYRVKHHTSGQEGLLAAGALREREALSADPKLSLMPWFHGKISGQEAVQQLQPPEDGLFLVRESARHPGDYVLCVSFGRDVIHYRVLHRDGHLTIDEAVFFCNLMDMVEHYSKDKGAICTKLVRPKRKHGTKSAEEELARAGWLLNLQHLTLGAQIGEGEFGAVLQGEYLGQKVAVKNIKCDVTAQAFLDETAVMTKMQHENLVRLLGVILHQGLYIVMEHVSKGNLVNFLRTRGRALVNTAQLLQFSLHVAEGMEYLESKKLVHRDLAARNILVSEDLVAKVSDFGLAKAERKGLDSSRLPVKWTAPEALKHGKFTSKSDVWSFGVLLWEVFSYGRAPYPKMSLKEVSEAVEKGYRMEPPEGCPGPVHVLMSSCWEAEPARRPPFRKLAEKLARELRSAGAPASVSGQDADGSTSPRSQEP
CSK, sequence (P41240 whole entry): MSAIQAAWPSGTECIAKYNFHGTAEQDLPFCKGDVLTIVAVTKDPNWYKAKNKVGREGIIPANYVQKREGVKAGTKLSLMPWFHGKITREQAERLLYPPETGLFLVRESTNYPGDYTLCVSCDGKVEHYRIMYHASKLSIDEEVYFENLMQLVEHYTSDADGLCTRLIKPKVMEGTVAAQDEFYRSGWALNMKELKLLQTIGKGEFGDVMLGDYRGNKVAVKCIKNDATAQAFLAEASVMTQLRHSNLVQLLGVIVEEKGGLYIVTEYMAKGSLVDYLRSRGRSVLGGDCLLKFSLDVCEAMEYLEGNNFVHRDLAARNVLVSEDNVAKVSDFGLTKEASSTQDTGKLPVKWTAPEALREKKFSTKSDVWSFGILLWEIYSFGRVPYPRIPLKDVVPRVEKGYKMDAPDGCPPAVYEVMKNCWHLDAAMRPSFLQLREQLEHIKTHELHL
IKKa/CHUK, sequence (O15111 whole entry): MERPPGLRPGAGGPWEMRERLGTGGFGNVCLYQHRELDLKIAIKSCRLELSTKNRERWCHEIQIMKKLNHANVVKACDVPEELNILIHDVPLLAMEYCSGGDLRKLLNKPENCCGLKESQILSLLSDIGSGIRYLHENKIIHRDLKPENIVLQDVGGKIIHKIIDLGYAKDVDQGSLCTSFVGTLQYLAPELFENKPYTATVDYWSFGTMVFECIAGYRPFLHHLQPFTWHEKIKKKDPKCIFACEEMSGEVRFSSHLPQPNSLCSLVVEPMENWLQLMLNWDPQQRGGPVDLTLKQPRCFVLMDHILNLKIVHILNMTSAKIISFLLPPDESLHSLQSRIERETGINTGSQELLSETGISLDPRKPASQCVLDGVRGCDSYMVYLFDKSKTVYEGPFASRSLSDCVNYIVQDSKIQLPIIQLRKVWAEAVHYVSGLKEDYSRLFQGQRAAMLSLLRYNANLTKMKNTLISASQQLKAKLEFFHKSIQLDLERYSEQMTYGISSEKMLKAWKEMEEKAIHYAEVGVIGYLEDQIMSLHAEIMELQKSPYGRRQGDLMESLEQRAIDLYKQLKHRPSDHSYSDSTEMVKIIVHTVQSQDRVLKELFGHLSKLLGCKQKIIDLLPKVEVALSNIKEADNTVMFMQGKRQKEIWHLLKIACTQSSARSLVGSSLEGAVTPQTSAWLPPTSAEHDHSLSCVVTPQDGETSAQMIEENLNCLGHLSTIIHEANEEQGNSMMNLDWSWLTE

As to `Cc1ccc(C(=O)Nc2ccc(CN3CCN(C)CC3)c(C(F)(F)F)c2)cc1C#Cc1c(N)ncc2ccc(Cl)cc12` [HSN286], the inhibition at 1 µM in assay [1] (Homo sapiens, HeLa, read-out: Percent inhibition of proliferation HeLa) amounted to 100%; in assay [2] (Homo sapiens, MCF7, read-out: Percent inhibition of proliferation MCF-7), 100%; in assay [3] (Homo sapiens, MV4-11, read-out: Percent inhibition of proliferation MV-4-11) it was 99%. Also, the concentration for half-maximal inhibition (IC50) in assay [4] stood at 50 nM; in assay [6] it was 4.5 nM. Besides, the results for the Kd in assay [5] and in [7] were 29 nM and 110 nM, respectively. Further, the inhibition at 0.5 µM amounted to 0% in assay [8]; 95% in assay [9]; 91% in [10]; 96% in assay [11]; 32% in [12]; 0% in [13]. Further, the inhibition at 0.5 µM in [14] was 88%; in assay [15], 96%; in assay [16], 93%; in assay [17], 36%; in assay [18], 67%; in assay [19], 3%. Also, the inhibition at 0.5 µM in assay [20] is 0%; in [21] it was 95%; in assay [22] it was 82%; in assay [23], 0%; in [24] it was 100%.

Consider `Cc1ccc(C(=O)Nc2ccc(CN3CCN(C)CC3)c(C(F)(F)F)c2)cc1C#Cc1cc(N)nc2ccccc12` [HSN285], for which the inhibition at 0.5 µM in [10] worked out at 0%; in assay [11] it was 0%; in assay [12] it was 25%; in [14], 0%; in assay [15] it was 46%; in [25] it was 0%. Further, the inhibition at 0.5 µM in assay [22] is 0%.

As to `CN(C)CC(O)CNC(=O)c1ccc(C#Cc2c(N)ncc3ccc(Cl)cc23)cc1` (stereo not shown) [HSM1702], the “Percent inhibition of proliferation HeLa” value in assay [1] is reported as 17%. Moreover, the “Percent inhibition of proliferation MCF-7” value in assay [2] turned out to be 100%. In assay [3], the “Percent inhibition of proliferation MV-4-11” value is given as 99%. For the same compound, the “Percentage kinase inhibition CTK/MATK” value in assay [8] came out at 0%. In addition, the “Percentage kinase inhibition LYN B” value in [9] was found to be 0%. In addition, the “% inhibition of TrkC” value in [10] amounted to 81%. The “Percentage kinase inhibition TAOK1” value in assay [13] is listed as 12%. The “Percentage kinase inhibition CSK” value in assay [16] is reported as 1%. The “Percentage kinase inhibition IKKa/CHUK” value in assay [17] is 0%. Also, the “Percentage kinase inhibition JAK2” value in assay [18] was found to be 0%. Further, the “Percentage kinase inhibition c-Src” value in [25] was 9%. Besides, the “Percentage kinase inhibition AKT2” value in [19] stood at 18%. The “Percentage kinase inhibition HCK” value in assay [21] is 2%. For the same compound, the “Percentage kinase inhibition CDK2/cyclin A” value in [23] was determined as 18%. For the same compound, the “Percentage kinase inhibition RET” value in [24] is given as 15%.

As for `COc1cc2nc(N)nc(C#Cc3cc(C(=O)Nc4ccc(CN5CCN(C)CC5)c(C(F)(F)F)c4)ccc3C)c2cc1OC` [HSN325], the inhibition at 0.5 µM in assay [8] stood at 5%; in [9], 35%; in assay [10], 4%; in assay [13] it was 0%; in assay [16] it was 0%; in [17], 6%. Further, the inhibition at 0.5 µM in assay [18] is 0%; in assay [25] it was 30%; in assay [19], 0%; in assay [20], 0%; in assay [21], 18%; in assay [23], 0%. Also, in assay [24], the inhibition at 0.5 µM stood at 96%.

Consider `Cc1ccc(C(=O)Nc2ccc(CN3CCN(C)CC3)c(C(F)(F)F)c2)cc1C#Cc1cnc(N)c2ncccc12` [HSN356, 3-((8-amino-1,7-naphthyridin-5-yl)ethynyl)-4-methyl-N-(4-((4-methylpiperazin-1-yl)methyl)-3-(trifluoromethyl)phenyl)benzamide], for which the values for the 50% inhibitory concentration (IC50) in [4] and in [6] were 88 nM and 14.9 nM, respectively. The results for the Kd in assay [5] and in [7] were 2.4 nM and 28 nM, respectively. The inhibition at 0.5 µM in assay [10] came to 59%; in [24], 100%.

Take `Cc1ccc(C(=O)Nc2ccc(CN3CCN(C)CC3)c(C(F)(F)F)c2)cc1C#Cc1cnc(N)c2ccccc12` [HSN334, 3-((1-aminoisoquinolin-4-yl)ethynyl)-4-methyl-N-(4-((4-methylpiperazin-1-yl)methyl)-3-(trifluoromethyl)phenyl)benzamide]: it took 98 nM to reach half-maximal inhibition in assay [4] (IC50). The inhibition at 0.5 µM in assay [24] stood at 100%.
